Test results as given in patent publication US12686665B2, “Bicyclic fused ring derivative or salt thereof and pharmaceutical composition comprising same” (YUHAN CORPORATION, priority 2021, dated 2026).
Counter-ions that a name gives are not always drawn.

Legend:
Assay type in all cases: biochemical
[1] = molecular target: T1, recombinant human DAO (diamine oxidase) (Homo sapiens, UniProt P19801); test: Amplex Red HRP-coupled amine oxidase assay, recombinant human DAO; settings: 1 mM putrescine substrate, read-out: Inhibitory activity (IC50, nM) DAO
T1 construct: purchased R&D systems
T1 sequence (P19801 20-751): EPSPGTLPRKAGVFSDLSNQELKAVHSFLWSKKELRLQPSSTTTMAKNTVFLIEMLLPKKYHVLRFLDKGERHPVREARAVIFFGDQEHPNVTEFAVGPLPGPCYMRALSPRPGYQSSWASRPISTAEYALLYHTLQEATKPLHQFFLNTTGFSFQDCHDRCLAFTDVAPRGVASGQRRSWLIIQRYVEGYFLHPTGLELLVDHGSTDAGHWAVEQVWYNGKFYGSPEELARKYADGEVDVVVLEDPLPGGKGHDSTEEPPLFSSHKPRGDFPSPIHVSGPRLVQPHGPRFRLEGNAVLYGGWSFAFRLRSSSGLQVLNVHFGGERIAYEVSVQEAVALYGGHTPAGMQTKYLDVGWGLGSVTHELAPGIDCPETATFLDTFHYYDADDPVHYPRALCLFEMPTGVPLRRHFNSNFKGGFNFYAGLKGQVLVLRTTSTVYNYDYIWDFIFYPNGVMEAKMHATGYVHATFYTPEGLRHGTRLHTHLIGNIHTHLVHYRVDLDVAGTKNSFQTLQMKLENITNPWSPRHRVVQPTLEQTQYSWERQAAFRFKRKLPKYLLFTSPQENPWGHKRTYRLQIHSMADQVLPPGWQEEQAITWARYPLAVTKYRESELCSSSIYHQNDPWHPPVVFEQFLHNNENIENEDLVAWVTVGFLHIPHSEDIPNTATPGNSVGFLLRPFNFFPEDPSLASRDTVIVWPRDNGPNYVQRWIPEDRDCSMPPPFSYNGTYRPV
Protocol: (§1) The activities of the compounds according to the present invention against recombinant human Lysyl Oxidase-Like 2 (recombinant human LOXL2, R&D systems) were evaluated by measuring the levels of hydrogen peroxide in the HRP (horseradish peroxidase) coupled reactions, with the Amplex Red Hydrogen Peroxide Assay Kit (Molecular Probes, Invitrogen, USA). The tests were carried out at 37° C., and putrescine was used as a substrate. In the HRP coupling reaction, the oxidation of 10-acetyl-3,7-dihydroxyphenoxazine (Amplex Red reagent) by hydrogen peroxide generates a fluorescent product, i.e., resorufin. Briefly, the test compounds were dissolved in dimethyl sulfoxide (DMSO) at a concentration of 20 mM. Dose-response measurements were carried out by serial dilutions in DMSO to generate a six-point curve. The upper concentration was adjusted according to the potency of the compound, and then diluted with the reaction buffer to obtain a final DMSO concentration of 1%. Purified human LOXL2 in 50 mM sodium phosphate buffer (pH7.4) was added to each well of a 96 well black plate. The test compounds dissolved in DMSO were incubated with the human LOXL2 enzyme at 37° C. for 60 minutes. After the incubation for 60 minutes, a reaction mixture containing 400 μM Amplex Red reagent, 30 mM putrescine, and 2 U/mL HRP in 50 mM sodium phosphate buffer (pH 7.4) was added to each well. Fluorescence was measured with a microplate reader (Flexstation3, Molecular Devices), under the conditions of excitation at 530 nm and emission at 590 nm, 1 hour after the addition of the mixture. Inhibition by each compound was measured as % reduction in signal, compared to the control without an inhibitor (diluted DMSO only). The data were fixed to a four-variable logistic model, and […] values were calculated using the GraphPad Prism program.
(§2) And, the activities of the compounds according to the present invention against recombinant human MAO-A (monoamine oxidase-A, Sigma-Aldrich) and recombinant human MAO-B (monoamine oxidase-B, Sigma-Aldrich) were evaluated in a similar manner to the activity evaluation method for recombinant human LOXL2, using 0.5 mM tyramine and 1 mM benzylamine as a substrate, respectively. In addition, the activities of the compounds according to the present invention against recombinant human DAO (diamine oxidase, R&D systems) were evaluated in a similar manner to the activity evaluation method for recombinant human LOXL2, using 1 mM putrescine as a substrate.

[2] = molecular target: T2, recombinant human Lysyl Oxidase-Like 2 (LOXL2) (Homo sapiens, UniProt Q9Y4K0); test: Amplex Red HRP-coupled amine oxidase assay, recombinant human LOXL2; settings: 60 min incubation with enzyme at 37° C., putrescine substrate, read-out: Inhibitory activity (IC50, nM) human LOXL2
T2 construct: purchased R&D systems
T2 sequence (Q9Y4K0 26-774): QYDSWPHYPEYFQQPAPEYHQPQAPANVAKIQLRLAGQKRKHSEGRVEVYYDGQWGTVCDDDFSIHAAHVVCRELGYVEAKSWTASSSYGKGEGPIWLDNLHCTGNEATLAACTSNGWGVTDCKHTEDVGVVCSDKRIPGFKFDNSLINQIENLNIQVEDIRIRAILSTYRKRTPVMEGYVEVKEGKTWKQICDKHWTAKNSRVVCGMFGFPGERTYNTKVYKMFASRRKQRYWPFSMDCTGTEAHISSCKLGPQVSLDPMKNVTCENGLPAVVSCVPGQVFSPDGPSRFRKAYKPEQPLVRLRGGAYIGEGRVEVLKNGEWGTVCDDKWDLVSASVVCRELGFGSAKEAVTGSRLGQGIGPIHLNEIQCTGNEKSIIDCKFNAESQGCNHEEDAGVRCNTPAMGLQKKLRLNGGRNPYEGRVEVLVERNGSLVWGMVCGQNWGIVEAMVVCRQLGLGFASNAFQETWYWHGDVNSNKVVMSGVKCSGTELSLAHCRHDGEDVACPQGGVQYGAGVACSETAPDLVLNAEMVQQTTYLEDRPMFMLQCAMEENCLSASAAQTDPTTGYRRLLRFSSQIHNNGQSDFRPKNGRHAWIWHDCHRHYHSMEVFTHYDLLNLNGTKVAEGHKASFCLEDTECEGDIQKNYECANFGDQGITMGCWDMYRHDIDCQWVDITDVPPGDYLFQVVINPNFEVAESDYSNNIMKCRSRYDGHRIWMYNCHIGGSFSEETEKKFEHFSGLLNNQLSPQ
Protocol: as §1

[3] = molecular target: T3, recombinant human MAO-B (monoamine oxidase-B) (Homo sapiens, UniProt P27338); test: Amplex Red HRP-coupled amine oxidase assay, recombinant human MAO-B; settings: 1 mM benzylamine substrate, read-out: Inhibitory activity (IC50, nM) MAO-B
T3 construct: purchased Sigma-Aldrich
T3 sequence (P27338 1-520): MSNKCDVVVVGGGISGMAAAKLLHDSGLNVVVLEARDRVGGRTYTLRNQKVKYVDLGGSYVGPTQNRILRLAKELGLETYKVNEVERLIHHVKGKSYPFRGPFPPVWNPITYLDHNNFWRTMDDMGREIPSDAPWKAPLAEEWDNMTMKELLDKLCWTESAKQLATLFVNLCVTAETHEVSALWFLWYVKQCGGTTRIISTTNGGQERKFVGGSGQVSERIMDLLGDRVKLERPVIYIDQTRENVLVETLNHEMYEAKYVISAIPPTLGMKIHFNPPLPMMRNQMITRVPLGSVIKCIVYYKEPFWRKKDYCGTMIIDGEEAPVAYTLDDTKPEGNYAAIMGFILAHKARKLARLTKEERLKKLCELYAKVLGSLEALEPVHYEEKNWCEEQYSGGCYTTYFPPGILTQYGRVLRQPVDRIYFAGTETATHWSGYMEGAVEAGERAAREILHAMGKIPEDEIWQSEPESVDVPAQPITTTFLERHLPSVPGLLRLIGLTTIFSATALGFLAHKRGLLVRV
Protocol: as §1, §2

[4] = molecular target: T4, recombinant human MAO-A (monoamine oxidase-A) (Homo sapiens, UniProt P21397); test: Amplex Red HRP-coupled amine oxidase assay, recombinant human MAO-A; settings: 0.5 mM tyramine substrate, read-out: Inhibitory activity (IC50, nM) MAO-A
T4 construct: purchased Sigma-Aldrich
T4 sequence (P21397 1-527): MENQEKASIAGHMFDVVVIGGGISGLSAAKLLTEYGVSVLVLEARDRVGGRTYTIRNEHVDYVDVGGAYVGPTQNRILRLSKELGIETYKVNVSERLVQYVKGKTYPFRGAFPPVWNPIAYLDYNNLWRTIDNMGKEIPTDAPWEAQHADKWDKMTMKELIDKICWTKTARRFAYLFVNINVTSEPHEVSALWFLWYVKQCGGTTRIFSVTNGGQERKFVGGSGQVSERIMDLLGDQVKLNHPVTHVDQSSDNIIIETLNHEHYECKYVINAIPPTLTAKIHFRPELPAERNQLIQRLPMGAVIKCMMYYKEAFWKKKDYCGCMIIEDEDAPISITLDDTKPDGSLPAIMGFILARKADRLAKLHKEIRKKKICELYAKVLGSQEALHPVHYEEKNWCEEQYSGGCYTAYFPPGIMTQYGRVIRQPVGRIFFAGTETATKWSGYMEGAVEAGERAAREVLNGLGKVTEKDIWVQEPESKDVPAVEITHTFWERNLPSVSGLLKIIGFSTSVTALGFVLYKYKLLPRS
Protocol: as §1, §2

Compound | IC50 [1] | IC50 [2] | IC50 [3] | IC50 [4]
CN(C)S(=O)(=O)c1cccc(-c2cc(C(F)(F)F)cc3c2nnn3C/C(F)=C/CN)c1 [Example 196, (Z)-3-(1-(4-amino-2-fluorobut-2-en-1-yl)-6-(trifluoromethyl)-1H-benzo[d][1,2,3]triazol-4-yl)—N,N-dimethylbenzenesulfonamide hydrochloride] | 3150 nM | 34 nM | – | –
CN(C)S(=O)(=O)c1cccc(-c2cc(C#N)cc3c2ncn3C/C(F)=C/CN)c1 [Example 182, (Z)-3-(1-(4-amino-2-fluorobut-2-en-1-yl)-6-cyano-1H-benzo[d]imidazol-4-yl)-N,N-dimethylbenzenesulfonamide hydrochloride] | – | 28.7 nM | > 100000 nM | > 100000 nM
Cn1nccc1-c1cc(C#N)cc2c1ncn2C/C(F)=C/CN [Example 191, (Z)-1-(4-amino-2-fluorobut-2-en-1-yl)-4-(1-methyl-1H-pyrazol-5-yl)-1H-benzo[d]imidazol-6-carbonitrile hydrochloride] | – | 95.5 nM | > 100000 nM | > 100000 nM
CCn1nccc1-c1cc(C#N)cc2c1ncn2C/C(F)=C/CN [Example 192, (Z)-1-(4-amino-2-fluorobut-2-en-1-yl)-4-(1-ethyl-1H-pyrazol-5-yl)-1H-benzo[d]imidazol-6-carbonitrile hydrochloride] | – | 137 nM | > 100000 nM | > 100000 nM
COC(=O)c1cc(-c2cc(S(=O)(=O)NC3CC3)ccc2OC)c2nnn(C/C(F)=C/CN)c2c1 [Example 120, methyl (Z)-1-(4-amino-2-fluorobut-2-en-1-yl)-4-(5-(N-cyclopropylsulfamoyl)-2-methoxyphenyl)-1H-benzo[d][1,2,3]triazol-6-carboxylate hydrochloride] | 2830 nM | 17.1 nM | 97000 nM | –
COC(=O)c1cc(-c2cccc(S(=O)(=O)NCc3ccc(OC)cc3)c2)c2ncn(C/C(F)=C/CN)c2c1 [Example 32, methyl (Z)-1-(4-amino-2-fluorobut-2-en-1-yl)-4-(3-(N-(4-methoxybenzyl)sulfamoyl)phenyl)-1H-benzo[d]imidazol-6-carboxylate hydrochloride] | – | 60.1 nM | – | –
CS(=O)(=O)c1cccc(-c2cccc3c2nnn3C/C(F)=C/CN)c1 [Example 106, (Z)-3-fluoro-4-(4-(3-(methylsulfonyl)phenyl)-1H-benzo[d][1,2,3]triazol-1-yl)but-2-en-1-amine hydrochloride] | – | 94 nM | – | –
COC(=O)c1cc(-c2cccc(S(=O)(=O)NCc3ccc(OC)cc3)c2)c2nnn(C/C(F)=C/CN)c2c1 [Example 125, methyl (Z)-1-(4-amino-2-fluorobut-2-en-1-yl)-4-(3-(N-(4-methoxybenzyl)sulfamoyl)phenyl)-1H-benzo[d][1,2,3]triazol-6-carboxylate hydrochloride] | – | 70.6 nM | – | –

More lines, now with the values ahead:

IC50 [1] | IC50 [2] | IC50 [3] | IC50 [4] | Compound
7440 nM | 281 nM | – | – | N#Cc1cc(-c2cccc(CO)c2Cl)c2nnn(C/C(F)=C/CN)c2c1 [Example 207, (Z)-1-(4-amino-2-fluorobut-2-en-1-yl)-4-[2-chloro-3-(hydroxymethyl)phenyl-1H-benzo[d][1,2,3]triazol-6-carbonitrile hydrochloride]
1960 nM | 200 nM | – | – | N#Cc1cc(-c2cc(CO)ccc2F)c2nnn(C/C(F)=C/CN)c2c1 [Example 206, (Z)-1-(4-amino-2-fluorobut-2-en-1-yl)-4-[2-fluoro-5-(hydroxymethyl)phenyl]-1H-benzo[d][1,2,3]triazol-6-carbonitrile hydrochloride]
1730 nM | 350 nM | – | – | Cn1nccc1-c1cc(C#N)cc2c1nnn2C/C(F)=C/CN [Example 211, (Z)-1-(4-amino-2-fluorobut-2-en-1-yl)-4-(1-methyl-1H-pyrazol-5-yl)-1H-benzo[d][1,2,3]triazol-6-carbonitrile hydrochloride]
432 nM | 264 nM | – | – | N#Cc1cc(-c2cncnc2)c2nnn(C/C(F)=C/CN)c2c1 [Example 210, (Z)-1-(4-amino-2-fluorobut-2-en-1-yl)-4-(pyrimidin-5-yl)-1H-benzo[d][1,2,3]triazol-6-carbo nitrile hydrochloride]
